Type in all cases: cell-based
Assay [1] deals with YAP/TAZ-TEAD transcription. Briefly: Reporter gene assay for measuring the inhibition of YAP/TAZ-TEAD transcription. The following applies: Homo sapiens, HEK-293T; Hek293T cells transiently transfected with TEAD-responsive element luciferase reporter; 24 hours incubation. An outline of the steps:
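HEK293T cells transiently transfected with a TEAD-responsive luciferase reporter, plated onto pre-diluted compounds and incubated 24 h at 37 °C/5% CO2. Luminescence read after SteadyLite substrate; percent inhibition scaled between vehicle (0%) and positive control inhibitor (100%), giving IC50/EC50.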
(In general: Reporter assays use an easily measured gene product as a stand-in for the process of interest.)

Assay [2] deals with NCI-H226. Put plainly: Mesothelioma cell line proliferation assay (NCI-H226). The following applies: Homo sapiens, 144 h; NCI-H226 cells; 6 days with compound; cell viability by ATPlite. Here is the method:
(§1) Mesothelioma cell lines, NCI-H226 and NCI-H2052 (all sourced from the ATCC cell culture collection) are plated in 96-well plates (Corning® 96 Well White Polystyrene Microplate clear flat bottom, white polystyrene (TC-Treated)), at 1500 cells/well in full medium (RPMI 1640 ATCC modification with L-glutamine, HEPES, Phenol Red, Sodium Pyruvate, High glucose, Low sodium bicarbonate and 10% fetal bovine serum). Cells are incubated overnight at 37° C. in an incubator with 5% CO2. Then compounds, dissolved in DMSO, are added in dose-response. Cells are incubated with compound dilutions for another 6 days at 37° C. in an incubator with 5% CO2. Cell viability is quantitated using the ATPlite kit (Perkin-Elmer) and the luminescence is read-out using an Envision instrument (Perkin-Elmer). The amount of relative light units produced using the ATPlite kit is used to calculated percent of inhibition.
(§2) The activities of some example compounds are depicted in Table 9. The activity ranges A, B and C refer to EC50 values in the mesothelioma cell line proliferation assay as described as follows: “A”: EC50<1 μM; “B”: 1 μM≤EC50≤10 μM and “C”: EC50>10 μM; NT: not tested.
In general terms: ATP-based viability assays read luminescence as a measure of living cells.

In assay [3] the test system is NCI-H2052. Briefly: Mesothelioma cell line proliferation assay (NCI-H2052). The following applies: Homo sapiens, 144 h; NCI-H2052 cells; 6 days with compound; cell viability by ATPlite. On the procedure: as §1, §2

A value given as a limit tells only on which side of the number the result lay.

The term EC50 denotes the concentration giving half of the maximal effect.

Regarding `C=CC(=O)N1CCc2c(nc(Cc3ccccc3)nc2-c2ccn(Cc3cccnc3)n2)C1` [Cpd. No. 35, 1-(2-benzyl-4-(1-(pyridin-3-ylmethyl)-1H-pyrazol-3-yl)-5,8-dihydropyrido[3,4-d]pyrimidin-7(6H)-yl)prop-2-en-1-one], the 50% effective concentration (EC50) was less than 1000 nM in assay [1], less than 1000 nM in assay [2] and 1000 to 10000 nM in assay [3].

With `C=CC(=O)N1CCc2c(nc(-c3ccccc3)nc2-c2ccn(C)n2)C1` [Cpd. No. 39, 1-(4-(1-methyl-1H-pyrazol-3-yl)-2-phenyl-5,8-dihydropyrido[3,4-d]pyrimidin-7(6H)-yl)prop-2-en-1-one], the EC50 in assay [1] was less than 1000 nM; in assay [2], less than 1000 nM; in assay [3], 1000 to 10000 nM.

As to `C=CC(=O)N1CCc2c(nc(Cc3cccc(F)c3)nc2-c2ccn(C)n2)C1` [Cpd. No. 43, 1-(2-(3-fluorobenzyl)-4-(1-methyl-1H-pyrazol-3-yl)-5,8-dihydropyrido[3,4-d]pyrimidin-7(6H)-yl)prop-2-en-1-one], the EC50 is less than 1000 nM in assay [1], less than 1000 nM in assay [2] and 1000 to 10000 nM in assay [3].

With `C=CC(=O)N1CCc2c(nc(Cc3cccc(C(F)(F)F)c3)nc2-c2ccn(C)n2)C1` [Cpd. No. 46, 1-(4-(1-methyl-1H-pyrazol-3-yl)-2-(3-(trifluoromethyl)benzyl)-5,8-dihydropyrido[3,4-d]pyrimidin-7(6H)-yl)prop-2-en-1-one], the EC50 is less than 1000 nM in assay [1], less than 1000 nM in assay [2] and 1000 to 10000 nM in assay [3].

Consider `C=CC(=O)N1CCc2c(nc(Cc3ccc(C(F)(F)F)cc3)nc2-c2ccn(Cc3cccnc3)n2)C1` [Cpd. No. 49, 1-(4-(1-(pyridin-3-ylmethyl)-1H-pyrazol-3-yl)-2-(4-(trifluoromethyl)benzyl)-5,8-dihydropyrido[3,4-d]pyrimidin-7(6H)-yl)prop-2-en-1-one], for which the values for the EC50 in assay [1], in assay [2] and in assay [3] were less than 1000 nM, less than 1000 nM and more than 10000 nM, respectively.

Turning to `C=CC(=O)N1CCc2c(nc(-c3ccc(F)cc3)nc2-c2ccn(C)n2)C1` [Cpd. No. 51, 1-(2-(4-fluorophenyl)-4-(1-methyl-1H-pyrazol-3-yl)-5,8-dihydropyrido[3,4-d]pyrimidin-7(6H)-yl)prop-2-en-1-one], the concentration giving a half-maximal response (EC50) is less than 1000 nM in assay [1], less than 1000 nM in assay [2] and more than 10000 nM in assay [3].

Consider `C=CC(=O)N1CCc2c(nc(-c3cccc(F)c3)nc2-c2ccn(C)n2)C1` [Cpd. No. 52, 1-(2-(3-fluorophenyl)-4-(1-methyl-1H-pyrazol-3-yl)-5,8-dihydropyrido[3,4-d]pyrimidin-7(6H)-yl)prop-2-en-1-one], for which the 50% effective concentration (EC50) is less than 1000 nM in assay [1], less than 1000 nM in assay [2] and 1000 to 10000 nM in assay [3].

For `C=CC(=O)N1CCc2c(nc(-c3ccc(F)c(F)c3)nc2-c2ccn(C)n2)C1` [Cpd. No. 53, 1-(2-(3,4-difluorophenyl)-4-(1-methyl-1H-pyrazol-3-yl)-5,8-dihydropyrido[3,4-d]pyrimidin-7(6H)-yl)prop-2-en-1-one], the EC50 in assay [1] was less than 1000 nM; in assay [2], less than 1000 nM; in assay [3] it was 1000 to 10000 nM.

For `C=CC(=O)N1CCc2c(nc(-c3ccc(C(F)(F)F)cc3)nc2-c2ccn(C)n2)C1` [Cpd. No. 54, 1-(4-(1-methyl-1H-pyrazol-3-yl)-2-(4-(trifluoromethyl)phenyl)-5,8-dihydropyrido[3,4-d]pyrimidin-7(6H)-yl)prop-2-en-1-one], the half-maximal effective concentration (EC50) is less than 1000 nM in assay [1], less than 1000 nM in assay [2] and 1000 to 10000 nM in assay [3].

With `C=CC(=O)N1CCc2c(nc(-c3cccc(C(F)(F)F)c3)nc2-c2ccn(C)n2)C1` [Cpd. No. 55, 1-(4-(1-methyl-1H-pyrazol-3-yl)-2-(3-(trifluoromethyl)phenyl)-5,8-dihydropyrido[3,4-d]pyrimidin-7(6H)-yl)prop-2-en-1-one], the EC50 in assay [1] is less than 1000 nM; in assay [2], less than 1000 nM; in assay [3], 1000 to 10000 nM.

Consider `C=CC(=O)N1CCc2c(nc(-c3ccccc3)nc2-c2ccn(C(F)F)n2)C1` [Cpd. No. 65, 1-(4-(1-(difluoromethyl)-1H-pyrazol-3-yl)-2-phenyl-5,8-dihydropyrido[3,4-d]pyrimidin-7(6H)-yl)prop-2-en-1-one], for which the values for the EC50 in assay [1], in assay [2] and in assay [3] were less than 1000 nM, 1000 to 10000 nM and 1000 to 10000 nM, respectively.

For `C=CC(=O)N1CCc2c(nc(-c3ccc(C(F)(F)F)cc3)nc2-c2ccn(C(F)F)n2)C1` [Cpd. No. 69, 1-(4-(1-(difluoromethyl)-1H-pyrazol-3-yl)-2-(4-(trifluoromethyl)phenyl)-5,8-dihydropyrido[3,4-d]pyrimidin-7(6H)-yl)prop-2-en-1-one], the EC50 is less than 1000 nM in assay [1], less than 1000 nM in assay [2] and 1000 to 10000 nM in assay [3].

For `C=C(F)C(=O)N1CCc2c(nc(-c3ccc(C(F)(F)F)cc3)nc2-c2ccn(C)n2)C1` [Cpd. No. 71, 2-fluoro-1-(4-(1-methyl-1H-pyrazol-3-yl)-2-(4-(trifluoromethyl)phenyl)-5,8-dihydropyrido[3,4-d]pyrimidin-7(6H)-yl)prop-2-en-1-one], the EC50 is less than 1000 nM in assay [1], less than 1000 nM in assay [2] and more than 10000 nM in assay [3].

As for `C=CC(=O)N1CCc2c(nc(-c3ccc(C(F)(F)F)cc3)nc2-c2ccn(CCOC)n2)C1` [Cpd. No. 73, 1-(4-(1-(2-methoxyethyl)-1H-pyrazol-3-yl)-2-(4-(trifluoromethyl)phenyl)-5,8-dihydropyrido[3,4-d]pyrimidin-7(6H)-yl)prop-2-en-1-one], the figures for the concentration giving a half-maximal response (EC50) in assay [1], in assay [2] and in assay [3] were less than 1000 nM, less than 1000 nM and 1000 to 10000 nM, respectively.

For `C/C=C/C(=O)N1CCc2c(nc(-c3ccc(C(F)(F)F)cc3)nc2-c2ccn(C)n2)C1` [Cpd. No. 74, (E)-1-(4-(1-methyl-1H-pyrazol-3-yl)-2-(4-(trifluoromethyl)phenyl)-5,8-dihydropyrido[3,4-d]pyrimidin-7(6H)-yl)but-2-en-1-one], the values for the concentration for a half-maximal effect (EC50) in assay [1], in assay [2] and in assay [3] were less than 1000 nM, less than 1000 nM and 1000 to 10000 nM, respectively.

As to `C=C(C)C(=O)N1CCc2c(nc(-c3ccc(C(F)(F)F)cc3)nc2-c2ccn(C)n2)C1` [Cpd. No. 77, 2-methyl-1-(4-(1-methyl-1H-pyrazol-3-yl)-2-(4-(trifluoromethyl)phenyl)-5,8-dihydropyrido[3,4-d]pyrimidin-7(6H)-yl)prop-2-en-1-one], the EC50 in assay [1] is less than 1000 nM; in assay [2] it was less than 1000 nM; in assay [3], more than 10000 nM.

Consider `CC#CC(=O)N1CCc2c(nc(-c3ccc(C(F)(F)F)cc3)nc2-c2ccn(C)n2)C1` [Cpd. No. 86, 1-(4-(1-methyl-1H-pyrazol-3-yl)-2-(4-(trifluoromethyl)phenyl)-5,8-dihydropyrido[3,4-d]pyrimidin-7(6H)-yl)but-2-yn-1-one], for which the concentration for a half-maximal effect (EC50) in assay [1], in assay [2] and in assay [3] was less than 1000 nM in each case.

For `C=CC(=O)N1CCc2c(nc(-c3ccc(C(F)(F)F)cc3)nc2-c2cn(C)nn2)C1` [Cpd. No. 87, 1-(4-(1-methyl-1H-1,2,3-triazol-4-yl)-2-(4-(trifluoromethyl)phenyl)-5,8-dihydropyrido[3,4-d]pyrimidin-7(6H)-yl)prop-2-en-1-one], the values for the concentration for a half-maximal effect (EC50) in assay [1], in assay [2] and in assay [3] were less than 1000 nM, 1000 to 10000 nM and 1000 to 10000 nM, respectively.

Source of the values: patent US12516064B2, “Tetrahydropyridopyrimidines and related analogs for inhibiting YAP/TAZ-TEAD” (THE KATHOLIEKE UNIVERSITEIT LEUVEN, priority 2022, dated 2026).
